“Also recorded” adds a separate entry of the source.
How the values were obtained:
[1] = test system: systemic fibrosis induced with hypochlorous acid (HOCI) in Balb/c mice; assay: Histological analysis (hematoxylin/eosin, Masson's trichrome, Picrosirius red) of skin, heart and lung in HOCI-induced systemic fibrosis; assay type: in vivo; settings: HOCI+Istra vs HOCI group, week 4 to 6
Procedure: Histological analysis, hematoxylin/eosin staining, Masson's trichrome and Picrosirius red: Tissues for histological and immunohistochemical analyses were fixed in 10% buffered formalin for 24 hours and then included according to standard paraffin protocol. The classic hematoxylin/eosin, Masson and Pricrosirius stainings were performed on 5-6 μm thickness tissue slices that were routinely processed using an automated histology preparer.
(§1) In fact, data obtained from literature indicate that it is possible to find a significant fibrosis in the major organs such as skin, heart, large vessels and lungs, already at the fourth week of induction of the disease: for this reason, the treatment with istradefylline started at the fourth week, carrying on both induction and treatment up to the sixth week.
Animals were divided into 3 groups of 7 animals each. A group was used as control group and was the group of untreated animals (“Sham”); a group was subcutaneously treated with 400 μl of an aqueous solution of hypochlorous acid (HOCI) for 6 weeks; lastly a group was subcutaneously treated with the above-mentioned solution of HOCI at the dose of 400 μl (for 6 weeks) and with istradefylline (from week 4 up to week 6) at the dose of 10 mg/kg per day intraperitoneally and 1 hour after HOCI injection (“HOCI+Istra”). […]

[2] = test system: vimentin and b-catenin (Wnt/b-catenin pathway); assay: Immunofluorescence for vimentin and b-catenin in skin, heart and lung in HOCI-induced systemic fibrosis; assay type: in vivo, Balb/c mice; settings: HOCI+Istra vs HOCI group; all studied tissues (skin, lung, heart); 10 mg/kg per day intraperitoneally, week 4 to 6; FIG. 3
Procedure: Immunofluorescence methods to mark vimentin and b-catenin: For immunohistochemistry the 5 μm tissue slices were incubated with 10 mmol/pH 6.0 citrate buffer in a temperature of 98° C. for 20 min. To reduce the background fluorescence, tissues were kept in a humidified chamber in 2 mmol/L glycine for 30 minutes. For the blocking of nonspecific antigenic sites, incubation was performed for 1 hour with 5% fetal bovine serum diluted in PBS, with the addition of 3% serum bovine albumin and 1% Triton X-100. Primary antibodies (p-Ser552 b-catenin, diluted 1:200; Cell Signal Technologies; Vimentin monoclonal antibody diluted 1:800; Sigma-Aldrich) were diluted in PBS and kept for 1 hour at room temperature. A species-specific antibody from Vector Laboratories was used as a negative control of the reaction. Secondary antibodies labeled with anti-rabbit IgG-fluorescein isothiocyanate (green fluorescence) or with anti-mouse IgG Alexa Fluor 555 (fred fluorescence) were kept for 1 hour at room temperature before mounting the slides and to observe the reaction under the microscope. […]

[3] = test system: genes encoding TGF-b, Wnt1, Wnt5, Wnt10, DKK1 and Col1A1; assay: Quantitative Real-Time PCR of fibrosis-related genes in lungs in HOCI-induced systemic fibrosis; assay type: in vivo, Balb/c mice; settings: HOCI+Istra vs HOCI group, 10 mg/kg per day intraperitoneally, week 4 to 6, FIG. 4
Procedure: Quantitative Real Time PCR Method: Reverse transcription was performed using the Super-Script IV Reverse Transcriptase synthesis kit (Thermo Fisher Scientific) and random primers as indicated in the manufacturer's protocol and 1 μl of cDNA was then used for the PCR reaction by using ready-made primers (to identify Wnt1, Wnt 5, Wnt 10, TGF-b, Collagen 1A1 and DKK1) and Thermo Fisher Scientific master mix in the QuantStudio 6 Flex instrument from Applied Biosystems.
as §1
Animals were divided into 3 groups of 7 animals each. […]
Lungs obtained from the animals of all the experimental groups were subjected to the extraction of the total RNA which was then analyzed with the quantitative Real-Time PCR and specific primers to evaluate the expression of the genes encoding for TGF-b, Wnt1, Wnt5, Wnt10, DKK1 and Col1A1 (type I collagen) measured compared to the expression of the housekeeping gene, b-actin.

With CCn1c(=O)c2c(nc(/C=C/c3ccc(OC)c(OC)c3)n2C)n(CC)c1=O [istradefylline, 8-[(1E)-2-(3,4-Dimethoxyphenyl)ethenyl]-1,3-diethyl-3,7-dihydro-7-methyl-1H-purine-2,6-dione] the “thickening in skin and at the myocardial and pulmonary level (hematoxylin/eosin)” value ([1]; istradefylline 10 mg/kg per day intraperitoneally, FIG. 1) was “significantly reduce the thickening”, the “collagen fibers deposition (Masson trichrome and Picrosirius red)” value ([1]; skin, lung and heart tissues, 10 mg/kg per day intraperitoneally, FIG. 2, 10 mg/kg/day) was “lower deposition of collagen fibers; also recorded: significant reduction collagen fibers deposition” and the “positivity of b-catenin (immunofluorescence)” value [2] was “significantly reduced the positivity”. The “positivity of vimentin (immunofluorescence, fibroblast marker)” value [2] was “significantly reduced the positivity” and the “expression of genes related to the fibrotic process (Wnt1, 5, 10 and TGF-b; 'all 3 targets') relative to b-actin” value [3] was “significant reduction in the expression”.

— patent US20240277718A1, “USE OF […] TO REDUCE ORGAN FIBROSIS” (SUNN[…].R.L., priority 2021, published 2024)
